Experimental data from patent US20230201382A1, “RADIOLIGANDS FOR MYELIN” (CASE WESTERN RESERVE UNIVERSITY, priority 2016, published 2023).
Blank lines part the entries; values can stand above or below the compound they belong to.

Assays:
myelin [1] = test: In vitro tissue staining and fluorescent intensity ratio, mouse brain sections (Example 1); format: binding; details: 1 mM staining solution, 25 min
Description: Wild-type mice (20-22 g, 8 weeks old) were deeply anesthetized and perfused transcardially with precooled saline (4° C., 10 mL/min for 1 min followed by 7 mL/min for 6 min) followed by fixation with precooled 4% PFA in PBS (4° C., 10 mL/min for 1 min followed by 7 mL/min for 6 min). Brain tissues were then removed, postfixed by immersion in 4% PFA overnight, dehydrated in 10%, 20%, and 30% sucrose solution, embedded in a freezing compound (OCT, Fisher Scientific, Suwanee, Ga.), and sectioned at […] with a cryostat (Thermo HM525, Thermo Fisher Scientific Inc., Chicago, Ill., USA). […] Sections were then examined under a microscope (Leica DM4000B, Leica Microsystem Inc., Buffalo Grove, Ill., USA) equipped for fluorescence (DFC7000T), and images of the stained mouse whole brain sections were acquired with the same exposure time. ImageJ software was then used to quantify pixel intensity values on 6 sections of each tested compound. […] Images were analyzed by two experienced individuals. The FIR of white matter to gray matter were then calculated.
In vitro Staining and Assay of the Fluorescent Intensity. […] Next, we selected a representative region in the genus of the corpus callosum (gcc) and a representative region in the subcortical gray matter (cortex) and calculated the fluorescent intensity ratio (FIR) between both regions (FIG. 2A). […]

myelin [2] = test: In vitro detection of focal demyelination, LPC rat model; format: binding; details: LPC-induced focal demyelination, rat brain sections
Description: Sprague-Dawley female rats (220-250 g, 8 weeks old) were anesthetized and positioned in a stereotaxic frame (Stoelting). A small incision was made in the scalp, and the corpus callosum was targeted using the following stereotaxic coordinates, relative to bregma: anterior-posterior, 0.0 mm; medial-lateral, 2.0 mm; and dorsal-ventral, 3.4 mm. A small hole was drilled in the skull, and a 26S-gauge needle attached to a 10 μL Hamilton Syringe was lowered into the corpus callosum according to the dorsal-ventral coordinate. A microinjector pump (Stoelting) controlled the infusion of 6 μL of lysolecithin (LPC, 0.1% in saline) at a rate of 0.25 μL/min, after which the needle was left in place for 2 min in order to prevent liquid reflux out of the brain parenchyma. The incision was then closed using 5-0 Ethicon sutures, and the animals were allowed to recover on a heating pad. After 5-7 days, the animals were ready for study.
Five days after surgery, the rats were anesthetized and perfused with saline followed by 4% PFA. […] Sections were then examined under a microscope (Leica DM4000B, Leica Microsystem Inc., Buffalo Grove, Ill., USA) equipped for fluorescence (DFC7000T), and images of the stained mouse whole brain sections were acquired with the same exposure time. […]

myelin [3] = test: In situ staining after tail vein injection (Example 2); format: in vivo, mouse; details: 1.0 mg (50 mg/kg) tail vein, WT mice, 1 h
Description: Wild-type mice were administered the newly synthesized compounds (40 mg/kg) via tail vein injection, and 30-60 min later the mice were perfused transcardially with saline followed by 4% PFA in PBS. Brains and spinal cords were then removed, postfixed by immersion in 4% PFA overnight, dehydrated in 30% sucrose solution, cryostat sectioned at 100 μm, mounted on superfrost slides, and images were acquired directly using a Leica fluorescent microscope.
Following the in vitro studies, we then investigated the ability of compound 21 to readily enter the brain and bind to myelin in situ. A dose of 1.0 mg of compound 21 (50 mg/kg) was administered via the tail vein to wild-type (WT) mice. One hour after injection, the mice were perfused with saline followed by 4% paraformaldehyde (PFA) and the brain and spinal cord were removed and sectioned. The distribution of compound 21 was then directly examined under a fluorescent microscope.

myelin [4] = test: Quantitative microPET/CT imaging in WT rats (Example 2); format: in vivo, rat
Description: (§1) For better anatomic localization, CT coregistration was applied.
Following radiosynthesis, the pharmacokinetic profile of [^18F]21 was fully characterized by quantitative microPET/CT imaging in WT rats (n=3). […] The brain radioactivity peaked at 3 min postinjection followed by rapid clearance before reaching a plateau at 40-60 min postinjection.

myelin [5] = test: In situ autoradiography of mouse brain (Example 2); format: in vivo; details: mouse brain coronal sections
Description: Wild-type mice were euthanized at 30 min post iv injection of [^18F]21 (111 MBq, 3.0 mCi). The brains were rapidly removed, placed in OCT embedding medium, and frozen at −20° C. After reaching equilibrium at this temperature, the brains were coronally sectioned at 60 μm on a cryostat and mounted on superfrost slides. After drying by air at room temperature, the slides were put in a cassette and exposed for 20 min to film to obtain images.
To validate the PET results and confirm that the PET signals were indeed from specific binding to myelin, we conducted ex vivo autoradiography in the mouse brain following administration of [^18F]21 through tail vein injections. After 1 h, the mouse brain was dissected for coronal tissue sectioning. […] Thus, combination of in situ autoradiography and PET imaging confirmed that [^18F]21 binds specifically to myelin in vivo.

myelin [6] = test: Quantitative microPET/CT imaging in Shiverer and WT mice; format: in vivo, mouse; details: SUVs from 40 to 60 min
Description: as §1
To further evaluate the in vivo binding specificity of [^18F]21, we investigated the pharmacokinetic profiles of [^18F] 21 in a Shiverer mouse model that is deficient in myelin in the brain. Thus, the pharmacokinetic profiles of [^18F]21 were quantitatively compared between Shiverer mice (C3Fe.SWV-Mbpshi/J, n=2) and age-matched WT mice (CB57J, n=2).
Dynamic emission scans were acquired for 60 min in 3D list mode immediately after [^18F]21 (0.3 mCi each mouse, 11.1 MBq) was administered. The brain uptake of [^18F]21 was lower in the Shiverer brain than in the WT littermates (1.25 vs 1.64). After the brain concentration of [^18F]21 reached a plateau, the SUVs from 40 to 60 min were summarized and compared.

myelin [7] = test: Quantitative microPET/CT imaging of spinal cord, rat SCI model; format: in vivo
Description: Sprague-Dawley female rats (220-250 g, 8 weeks old) were anesthetized and a restricted laminectomy was conducted to expose the dorsal surface of T13. The vertebral column between T12 and L1 was then stabilized with clamps and forceps fixed to the base of an Infinite Horizon impact device. The midpoint of T13 was impacted with a force of 250 kDyn using a 2.5 mm stainless steel impactor tip, which was used to induce a moderately severe contusive injury to the spinal cord. The musculature was then sutured over the laminectomy site and the skin closed with wound clips followed by subsequent treatment with Marcaine at the incision site. The force/displacement graph was used to monitor impact consistency. After surgery, the animals were carefully monitored daily for pain and body weight with manual bladder expression 2-3 times daily to stimulate reflex voiding until the animals could urinate independently.
as §1
So far, imaging of the spinal cord remains a great challenge. […] Next, we asked whether [18F]21 PET is capable of in vivo imaging of myelin deficiency or myelin damage in living animal models. We conducted [^18F]21-PET imaging in a rat model of thoracic contusive SCI. In this model, the contusion was made at T13 to introduce demyelination. In vivo [^18F]21 PET imaging was performed before (as a baseline scan) and 1 day after contusion. The uptake of [^18F]21 in every spine segment was then normalized to the average spine uptake. […] After microPET/CT imaging, we conducted in situ histological staining of the spinal cord 60 min after injection of nonlabeled compound 21 through the tail vein.

SMILES: CC(C)Nc1ccc(/C=C/c2ccc(N)c(OCCF)c2)cc1 [Compound 35, (E)-4-(4-Amino-3-(2-fluoroethoxy)styryl)-N-isopropylaniline]
fluorescent intensity ratio (FIR) white matter (gcc) vs gray matter (cortex) (myelin [1]): > 2

SMILES: CNc1ccc(/C=C/c2ccc(NCc3cn(CCF)nn3)cc2)cc1 [Compound 21, (E)-N-((1-(2-Fluoroethyl)-1H-1,2,3-triazol-4-yl)methyl)-4-(4-(methylamino)styryl)aniline]
detection of demyelinated lesion by fluorescent staining (myelin [2]): capable of detecting the demyelinated focal lesion by fluorescent staining
brain and spinal cord entry and myelin binding in situ (myelin [3]): readily entered the brain and spinal cord and localized in all the myelinated regions in proportion to the myelin content
brain and spinal cord entry and myelin binding in situ (myelin [3]; listed as TAFDAS): readily penetrates the BBB and binds to myelin membranes in the brain and spinal cord

SMILES: CNc1ccc(/C=C/c2ccc(N)c(OCCF)c2)cc1 [Compound 32, (E)-4-(4-Amino-3-(2-fluoroethoxy)styryl)-N-methylaniline]
fluorescent intensity ratio (FIR) white matter (gcc) vs gray matter (cortex) (myelin [1]): > 2

uptake in the brain (myelin [4]): high uptake in the brain
time of peak brain radioactivity (myelin [4]; postinjection): 3 min
SMILES: CNc1ccc(/C=C/c2ccc(NCc3cn(CC[18F])nn3)cc2)cc1 [[^18F]21]
labeling in ex vivo autoradiography (myelin [5]): distinctly labeled the corpus callosum
uptake at 40-60 min, Shiverer vs control (myelin [6]): significantly decreased compared to the control mouse brain
uptake at L1 normalized to average spine uptake (myelin [7]; 1 day post-T13 contusion): 1.08
uptake at T12 normalized to average spine uptake (myelin [7]; 1 day post-T13 contusion): 0.99
uptake at T13 normalized to average spine uptake (myelin [7]; 1 day post-T13 contusion (SCI group)): 0.81
uptake at L1 normalized to average spine uptake (myelin [7]; before contusion (baseline)): 1.05
uptake at T12 normalized to average spine uptake (myelin [7]; before contusion (baseline)): 0.99
uptake at T13 normalized to average spine uptake (myelin [7]; before contusion (baseline)): 1.02
